Where two headings read alike, the source gives them in different places.
Assays:
Type in all cases: cell-based
Conditions in all cases: 7 days after inoculation
[1] = tested on: Phytophthora infestans
[2] = tested on: Botrytis cinerea; assay: M2 microtiterplate test, grey mold Botrytis cinerea (Botrci)
[3] = tested on: Pyricularia oryzae
[4] = tested on: Septoria tritici; assay: M4 microtiter test, leaf blotch on wheat caused by Septoria tritici (Septtr)
[5] = tested on: Alternaria solani; assay: M5 microtiter test, early blight caused by Alternaria solani (Alteso)
[6] = tested on: Leptosphaeria nodorum; assay: M6 microtiter test, wheat leaf spots caused by Leptosphaeria nodorum (Leptno)

Work on `CC(O)(Cn1cncn1)c1ccc(Oc2ccc(Cl)cc2)cc1C(F)(F)F` (centres unmarked) [I-3, 2-[4-(4-chlorophenoxy)-2-(trifluoromethyl)phenyl]-1-(1,2,4-triazol-1-yl)propan-2-ol] yielded an Observed efficacy ([1]; 0.063 ppm) of 12%, an Observed efficacy ([2]; 0.063 ppm) of 42% and an Observed efficacy ([3]; 0.25 ppm) of 10%. The Observed efficacy ([4]; 0.00025 ppm) was 28%, the Observed efficacy ([5]; 0.001 ppm) was 9% and the Observed efficacy ([6]; 0.016 ppm) was 35%.

Molecule `CNC(=O)Oc1cc(C)c(SC)c(C)c1` [Methiocarb (II-4), 4-methylthio-3,5-xylyl methylcarbamate] has an Observed efficacy ([1]; 63 ppm) of 51%, an Observed efficacy ([3]; 63 ppm) of 36% and an Observed efficacy ([4]; 0.063 ppm) of 6%.

In the case of `CC(C)(C)C(O)C(Oc1ccc(Cl)cc1)n1cncn1` (centres unmarked) [Triadimenol (II-2), (1 RS,2 RS;1 RS,2 SR)-1-(4-chlorophenoxy)-3,3-dimethyl-1-(1H-1,2,4-triazol-1-yl)butan-2-ol], the Observed efficacy ([2]; 4 ppm) is reported as 39%.

With `Cc1cc(C(F)(F)F)nn1CC(=O)N1CCC(c2nc(C3=NOC(c4c(F)cccc4F)C3)cs2)CC1` (racemic) [Oxathiapiprolin (II-1), 1-(4-{4-[(5 RS)-5-(2,6-difluorophenyl)-4,5-dihydro-1,2-oxazol-3-yl]-1,3-thiazol-2-yl}-1-piperidyl)-2-[5-methyl-3-(trifluoromethyl)-1H-pyrazol-1-yl]ethanone] the Observed efficacy ([2]; 16 ppm) was 4% and the Observed efficacy ([2]; 63 ppm) was 23%.

Molecule `O=c1[c-](-c2cccc(C(F)(F)F)c2)c(=O)[n+](Cc2cncnc2)c2ccccn12` [Triflumezopyrim (II-7), 3,4-dihydro-2,4-dioxo-1-(pyrimidin-5-ylmethyl)-3-(α,α,α-trifluoro-m-tolyl)-2H-pyrido[1,2-a]pyrimidin-1-ium-3-ide] has an Observed efficacy ([5]; 0.25 ppm) of 36%.

`CC(c1ccc(C(F)(F)F)nc1)S(C)(=O)=NC#N` (centres unmarked) [Sulfoxaflor (II-3), [methyl(oxo){1-[6-(trifluoromethyl)-3-pyridyl]ethyl}-Λ^6-sulfanylidene]cyanamide] showed an Observed efficacy ([6]; 16 ppm (commercial finished formulation diluted with water)) of 0%.

Reference: US10212934B2, “Pesticidal compositions” (BASF AGRO B.V., priority 2014, dated 2019)
